Structures are written as SMILES. Entries after “also recorded” stand apart in the source; their conditions may differ.

Common to all, as to assay type: in vivo, human
The test system of assay [1] is tau. Description: Tau PET tracer binding, SUVP peak-alignment method and positive binding percentage (PBP), AD patients and NL subjects. The conditions noted are these: for PBP of SUVP, Basal ganglia / PBP of SUVP, Cerebellar GM / PBP of SUVP, Cerebral GM / PBP of SUVP, Cerebral WM / PBP of SUVP, Frontal cortex / PBP of SUVP, Occipital cortex / PBP of SUVP, Partial cortex / PBP of SUVP, Temporal cortex: SUVP cutoff 1.5; for PBP of SUVP, Basal ganglia / PBP of SUVP, Cerebellar GM / PBP of SUVP, Cerebral GM / PBP of SUVP, Cerebral WM / PBP of SUVP, Frontal cortex / PBP of SUVP, Occipital cortex / PBP of SUVP, Partial cortex / PBP of SUVP, Temporal cortex / mean SUVP in cerebellum GM: mean (SD). From the text:
The set of standardized uptake values (with repetition) for all voxels within brain region r and subject s may be represented as SUV(r,s). Each of the values of SUV(r,s) may be normalized using a SUVP method represented as follows: SUVP(r,s)=(SUV(r,s)−M)/S, where M corresponds to a peak of the number of counts of emissions events recorded across all of the voxels of the PET image data, and S corresponds to a spread of all of the different counts of emissions events recorded across all of the voxels of the PET image data. Each subject's SUV image may be normalized and transferred into a standardized SUVP, using the standardized uptake value peak-alignment (SUVP) method described herein.
In one particular example, M is the sample mode of rounded SUV(r,s), and S is the standard deviation of SUV(r,s). Furthermore, the peak (M) values, in particular the sample mode of rounded SUV(r,s) may be used as a reference region to normalize raw SUV data using methods similar to SUVR.
In addition, as shown in step 112, a SUVP method may also be used to analyze regional percentages of positive binding in the PET data. Positive binding may be defined based on a predetermined cutoff value. The predetermined cutoff value may be any suitable value that is well above background signal. In some embodiments, the predetermined cutoff value may be manually set by a user. One important advantage of SUVP is that it standardized range of whole brain SUV into a generally fixed range regardless of tracer or disease condition, allowing universal cutoff for different tracers (e.g., 1.5 for all tracers), while SUVR cutoffs are tracer-dependent and varies across different studies (e.g., 1.5 for THK5315 and 1.2 for AV1451). Additionally, as discussed further below in Example I, when SUVP was calculated by using a standard deviation (SD), 1.5 times a SUVP cutoff value is equivalent to 1.5 times SD, which signifies a statistic meaningful way to distinguish and identify positive voxels. The percentage of positive binding (PBP) may be obtained by:
Subjects come from two sources. 18 subjects (9 AD patients, and 9 healthy elderly study participants) underwent ^18F-THK5351 PET scans from the memory clinic of Tohoku University Hospital. ^18F-AV-1451 scans were obtained from the ADNI (Alzheimer's Disease Neuroimaging Initiative) database (adni.loni.usc.edu). 32 Subjects (20 NL and 12 AD) with ^18F-AV-1451 were selected from ADNI, that were matched to the age and MMSE in participants of the THK5351 group.
(§1) PET imaging was performed using an Eminence STARGATE PET scanner (Shimadzu, Kyoto, Japan). After intravenous injection of ^18F-THK5351 (185 MBq), dynamic PET images were obtained for 60 min. acquisition matrix is 128×128×79 and voxels size is 2×2×2.6 mm. ^18F-THK5351 was synthesized. MRI was performed on all participants. T1 weighted MR images were obtained using a SIGNA 1.5-Tesla machine (General Electric, Milwaukee, Wis.). In T1-weighted MRI, a 3D volumetric acquisition of a T1-weighted gradient echo sequence produced a gapless series of thin axial sections by using a vascular TOF SPGR sequence (echo time/repetition time, 2.4/50 ms; flip angle, 45°; acquisition matrix, 256×256; 1 excitation; field of view, 22 cm; slice thickness, 2.0 mm).
AV-1451 data were downloaded from ADNI with series description “AV1451 Coreg, Avg, Std Img and Vox Siz, Uniform Resolution”. An intravenous injection of 10 mCi ^18F-AV-1451 (370 MBq) is followed by a saline flush. At approximately 75 minutes following injection, a continuous 30-minute brain scan (6 frames of 5-minute duration) was performed after a CT or transmission scan for attenuation correction. PET imaging was performed using GEMINI TF TOF 16 (Philips Medical Systems), with 6 frames; acquisition matrix 128×128×90; pixel spacing 2×2 mm; slice thickness 2 mm. […]

Assay [2] can be described thus: Off-target binding observed on PET images. The settings on record: observed on PET image. As for the experimental part: as §1
AV-1451 data were downloaded from ADNI with series description “AV1451 Coreg, Avg, Std Img and Vox Siz, Uniform Resolution”. An intravenous injection of 10 mCi ^18F-AV-1451 (370 MBq) is followed by a saline flush. At approximately 75 minutes following injection, a continuous 30-minute brain scan (6 frames of 5-minute duration) was performed after a CT or transmission scan for attenuation correction. PET imaging was performed using GEMINI TF TOF 16 (Philips Medical Systems), with 6 frames; acquisition matrix 128×128×90; pixel spacing 2×2 mm; slice thickness 2 mm.
Standardized uptake value (SUV) images were obtained by normalizing tissue radioactivity concentration by injected dose and bodyweight. Estimates of tau deposition were determined for THK53151 with the 40-60 min SUV and for AV1451 with for the 80-100 min SUV. Standard SUVR was generated by using cerebellar cortex as reference. To control the variation of SUVR measures in THK5351 and AV1451 PET caused by the off-target binding in reference region, each subject's SUV images were first transferred into standardized SUVP images, using the Peak-alignment method (as described above). […]

Assay [3] concerns tau. The assay is described as follows: AD-NL classification from tau PET: ROC AUC and AD-NL ratio of PBP. The conditions noted are these: temporal lobe.

Take `CNc1ccc(-c2ccc3cc(OC[C@H](O)CF)ccc3n2)cn1` [THK5351]: in the assay with tau [1] (AD patients), the “PBP of SUVP, Basal ganglia” value was 61.93(7.25); the “PBP of SUVP, Cerebellar GM” value is recorded as “.07(.10)”; the “PBP of SUVP, Cerebral GM” value was 5.56(1.47); the “PBP of SUVP, Cerebral WM” value is reported as 8.70(3.24). Besides, in the assay on tau [1] (AD patients), the “PBP of SUVP, Frontal cortex” value is listed as 1.25(0.86)^; the “PBP of SUVP, Occipital cortex” value is on record as 1.73(2.79)^; the “PBP of SUVP, Partial cortex” value is 2.16(3.33)^+; the “PBP of SUVP, Temporal cortex” value is reported as 17.94(5.15)*^+. The “mean SUVP in cerebellum GM” value in the assay on tau [1] (AD patients) was −1.24(0.24). For the same compound, in the assay on tau [1] (AD vs NL), the “decrease of cerebellum GM SUVP in AD comparing to NL” value worked out at 2.5%. Also, in the assay with tau [1] (NL subjects), the “PBP of SUVP, Basal ganglia” value was 81.24(8.55)^++; the “PBP of SUVP, Cerebellar GM” value was “.10(.14)”; the “PBP of SUVP, Cerebral GM” value is reported as 3.81(2.19); the “PBP of SUVP, Cerebral WM” value is recorded as 7.06(1.55). For the same compound, in the assay with tau [1] (NL subjects), the “PBP of SUVP, Frontal cortex” value is 2.37(1.25)^+; the “PBP of SUVP, Occipital cortex” value is reported as 0.05(0.09); the “PBP of SUVP, Partial cortex” value is reported as 0.17(0.21); the “PBP of SUVP, Temporal cortex” value is listed as 6.93(4.78). In the assay with tau [1] (NL subjects), the “mean SUVP in cerebellum GM” value is −1.21(0.28). For the same compound, the “regions with off-target binding” value in assay [2] is “ponds and Amygdala; also recorded: cerebral white matter and basal ganglia region”. Also, the “AD-NL ratio (R), SUVR Mean” value with tau [3] is reported as 1.18.
In the case of `[18F]c1ccc(-c2ccc3c(c2)[nH]c2ccncc23)cn1` [AV-1451], in the assay on tau [1] (AD patients), the “PBP of SUVP, Basal ganglia” value is reported as 18.55(12.28)^; the “PBP of SUVP, Cerebellar GM” value is “.90(1.46)”; the “PBP of SUVP, Cerebral GM” value was 9.4(10.83)^+; the “PBP of SUVP, Cerebral WM” value is 7.86(7.44)^+. In the assay with tau [1] (AD patients), the “PBP of SUVP, Frontal cortex” value is reported as 5.32(7.70)^; the “PBP of SUVP, Occipital cortex” value is reported as 5.59(8.23)^+; the “PBP of SUVP, Partial cortex” value is on record as 10.2(15.2)^+; the “PBP of SUVP, Temporal cortex” value is listed as 20.72(20.48)*^+. The “mean SUVP in cerebellum GM” value with tau [1] (AD patients) was −0.73(0.43). For the same compound, the “increase of cerebellar GM SUVP in AD comparing to NL” value in the assay on tau [1] (AD vs NL) is reported as 37%. Moreover, in the assay with tau [1] (NL subjects), the “PBP of SUVP, Basal ganglia” value was 28.14(11.42); the “PBP of SUVP, Cerebellar GM” value is listed as “.83(1.45)”; the “PBP of SUVP, Cerebral GM” value is given as 1.85(3.24); the “PBP of SUVP, Cerebral WM” value is on record as 2.65(3.64). Moreover, in the assay with tau [1] (NL subjects), the “PBP of SUVP, Frontal cortex” value is listed as 0.78(1.43); the “PBP of SUVP, Occipital cortex” value is reported as 0.54(1.58); the “PBP of SUVP, Partial cortex” value was 0.95(3.21); the “PBP of SUVP, Temporal cortex” value is reported as 5.44(11.10). Also, the “mean SUVP in cerebellum GM” value in the assay on tau [1] (NL subjects) is on record as −1.00(0.45). The “regions with off-target binding” value in assay [2] is “choroidal plexus and substantia nigra; also recorded: cerebral white matter and basal ganglia region”. The “regions with off-target binding” value in assay [2] (listed as AV1451) is “cerebellum”. Besides, the “AD-NL ratio (R), SUVR Mean” value with tau [3] is 1.17.

Values taken from patent publication US10945685B2, “System and method for normalizing standardized uptake values in brain positron emission tomography (PET) images” (New York University, priority 2018, dated 2021).
